Earlier results, collected in patent US7560230B2, “Method for determining susceptibility of tumor to treatment with anti-neoplastic agent” (Threshold Pharmaceuticals, Inc., priority 2003, dated 2009).

Assays:
Conditions in all cases: sodium-dependent transport
SGLT3 = test system: SGLT3
SGLT2 = target: T1, SGLT2 (Homo sapiens, UniProt P31639)
T1 sequence (P31639 1-672): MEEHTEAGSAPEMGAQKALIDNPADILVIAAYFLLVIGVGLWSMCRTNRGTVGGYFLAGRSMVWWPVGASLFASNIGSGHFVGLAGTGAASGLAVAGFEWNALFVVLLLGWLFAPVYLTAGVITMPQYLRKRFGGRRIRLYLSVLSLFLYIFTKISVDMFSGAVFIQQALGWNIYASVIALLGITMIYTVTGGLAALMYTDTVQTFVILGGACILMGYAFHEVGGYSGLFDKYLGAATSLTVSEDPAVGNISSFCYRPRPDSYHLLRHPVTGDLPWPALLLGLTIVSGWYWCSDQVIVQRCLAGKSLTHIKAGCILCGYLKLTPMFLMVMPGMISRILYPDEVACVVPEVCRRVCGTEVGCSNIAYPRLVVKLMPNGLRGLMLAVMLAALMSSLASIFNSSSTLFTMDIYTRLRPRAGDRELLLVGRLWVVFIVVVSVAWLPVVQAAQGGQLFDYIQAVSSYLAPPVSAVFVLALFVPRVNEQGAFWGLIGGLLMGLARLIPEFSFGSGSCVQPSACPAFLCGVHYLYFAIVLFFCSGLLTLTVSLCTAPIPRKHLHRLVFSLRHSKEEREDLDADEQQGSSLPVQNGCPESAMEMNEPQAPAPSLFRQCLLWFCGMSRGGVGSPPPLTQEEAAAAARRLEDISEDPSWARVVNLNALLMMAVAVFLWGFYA

SGLT1 = target: T2, SGLT1 (Homo sapiens, UniProt P13866)
T2 sequence (P13866 1-664): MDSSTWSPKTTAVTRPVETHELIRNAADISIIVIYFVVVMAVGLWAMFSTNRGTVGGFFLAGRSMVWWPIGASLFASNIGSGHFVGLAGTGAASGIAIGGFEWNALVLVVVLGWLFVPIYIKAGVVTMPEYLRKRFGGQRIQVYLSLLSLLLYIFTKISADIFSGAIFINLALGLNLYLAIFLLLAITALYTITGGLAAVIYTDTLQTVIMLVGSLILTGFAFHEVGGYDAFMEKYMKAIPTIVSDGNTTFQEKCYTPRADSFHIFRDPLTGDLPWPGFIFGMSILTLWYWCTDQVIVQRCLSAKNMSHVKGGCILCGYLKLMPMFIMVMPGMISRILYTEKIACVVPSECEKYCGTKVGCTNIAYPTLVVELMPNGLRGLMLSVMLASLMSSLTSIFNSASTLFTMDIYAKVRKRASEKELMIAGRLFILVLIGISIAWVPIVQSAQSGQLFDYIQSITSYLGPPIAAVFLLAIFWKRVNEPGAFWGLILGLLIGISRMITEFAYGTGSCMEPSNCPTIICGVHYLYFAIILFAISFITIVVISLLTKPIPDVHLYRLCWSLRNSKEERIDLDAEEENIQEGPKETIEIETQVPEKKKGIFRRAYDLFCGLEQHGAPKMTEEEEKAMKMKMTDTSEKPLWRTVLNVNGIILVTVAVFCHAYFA

- apparent affinity (K0.5) (SGLT2): 2 mM
- apparent affinity (K0.5) (SGLT1): 0.4 mM
Compound: CO[C@H]1O[C@H](CO)[C@@H](O)[C@H](O)[C@H]1O [a-MDG, a-methyl-D-glucoside]
- apparent affinity (K0.5) (SGLT3): 2 mM
